The assay has as its system LnCaP cells. The assay is described as follows: LnCaP cell uptake and internalization. The format is cell-based. The following applies: Table 4, 177Lu-labelled, 37 °C, 45 min. The source says: Table 4. Conditions and results of LnCaP cell uptake
wherein [formula] Table 5. Detailed results of LnCaP cell uptake

SMILES strings stand for the structures.

For the compound `O=C(O)CC[C@H](NC(=O)N[C@@H](CCCCNC(=O)[C@H](Cc1ccc2ccccc2c1)NC(=O)[C@H]1CC[C@H](CNC(=O)CN2CCN(CC(=O)O)CCN(CC(=O)O)CCN(CC(=O)O)CC2)CC1)C(=O)O)C(=O)O` [VWT001500, PSMA-617], the “Cellular uptake results, internalization rate%” value turned out to be 9.57% and the “Cellular uptake results, uptake rate%” value is given as 1.01%.

Values taken from patent publication EP4782440A9, “PSMA COMPOUND, AND PHARMACEUTICAL COMPOSITION CONTAINING SAME AND USE THEREOF” (VITSGEN THERAPEUTICS INC., priority 2023, dated 2025).
